From US10302660B2, “Methods useful for vitamin D deficiency and related disorders” (OPKO RENAL, LLC, priority 2008, dated 2019)
“Also recorded” adds a separate entry of the source.

How the values were obtained:
PTH = experiment: Serum PTH by ELISA in uremic rats treated with 1,25-dihydroxyvitamin D3; format: in vivo, Sprague-Dawley rats; settings: 0.5 mcg/kg i.v. daily for 7 days (FIG. 12)
Procedure: (§1) CYP24 and CYP27B1 expression was measured using the same protocol outlined above in Example 6 with respect to FIG. 11. Serum levels of 25(OH)D3 and 1,25-dihydroxyvitamin D3 were measured by LC-MS. Serum PTH was measured by ELISA IMMUTOPICS (San Clemente, Calif., USA) according to manufacturer's instructions. Briefly, serum samples were spiked with [26,27-^2H6] 25(OH)D3 or [25,26-^2H6] 1,25-dihydroxyvitamin D3 and dissolved in acetonitrile to serve as an internal standard. 1,25-dihydroxyvitamin D3 or 25(OH)D3 and internal standards were extracted from serum using Accubond II ODS-C18 100 mg, 1 mL SPE cartridges (Agilent Technologies). The collected fractions were evaporated to dryness under a steady stream of nitrogen gas and the residues reconstituted in 50 μL of methanol/H2O (80/20; v/v) and analyzed using LC-MS/MS (Waters Alliance HPLC—Waters Quattro Ultima mass spectrometer). Relative expression values are normalized to the vehicle-treated group (relative expression=1).

[1] = Vitamin D hormone status: 1,25-(OH)2-D3 level by mass spectrometry in adenine-fed rats; format: in vivo; settings: versus control-fed animals (FIG. 3)
CYP24 [2] = experiment: CYP24 gene expression by real-time PCR in normal and adenine-induced uremic rats dosed with 1,25-dihydroxyvitamin D3; format: in vivo, Sprague-Dawley rats
Procedure: Sprague-Dawley rats were treated i.v. daily with vehicle or 0.5 mcg/kg 1,25-dihydroxyvitamin D3 for 1 week. Organs were collected 24 hours after the last dosing. CYP24 gene expression was determined by real-time PCR.
Sprague-Dawley rats were fed a standard diet (normal) or a uremia-inducing diet containing 0.75% adenine (uremic) for 4 weeks. Animals were then dosed i.v. daily with vehicle or 0.5 mcg/kg 1,25-dihydroxyvitamin D3 for 7 days. Organs were collected 24 hours after the final dosing. CYP24 gene expression was determined by real-time PCR and normalized to GAPDH levels. Relative expression values are normalized to the vehicle-treated group (relative expression=1).
“*” denotes a significant difference in CYP24 expression between vehicle and 1,25-dihydroxyvitamin D3 treatment in normal and uremic rats. “**” represents a significant difference between vehicle-treated normal and uremic rats. “ ? ” denotes significant difference in CYP24 induction levels between normal and uremic rats treated with 1,25-dihydroxyvitamin D3. Significance was set at a p value cutoff of <0.05. Data are presented as mean±SEM. Numerals above each bar signifies relative fold induction to normal-vehicle.
as §1, with “Relative expression values are normalized to the vehicle-treated group (relative expression=1).” left out

[3] = Serum 25(OH)D3 by LC-MS in uremic rats treated with 1,25-dihydroxyvitamin D3; format: in vivo, Sprague-Dawley rats; settings: 0.5 mcg/kg i.v. daily for 7 days (FIG. 12)
Procedure: as §1

[4] = test system: parathyroid hormone (PTH); experiment: Serum intact PTH (iPTH Elisa Kit) in adenine-fed rats treated with vitamin D compounds; format: in vivo; settings: treated for one week, versus control-fed animals (FIG. 2)
From the text: To obtain an animal model of vitamin D deficiency, rats were fed an adenine-rich diet.

CYP24 [5] = experiment: Kidney CYP24 mRNA (real-time PCR) in vitamin D deficient rats treated with 25-hydroxyvitamin D3; format: in vivo, Sprague Dawley rats; settings: vitamin D deficient animals after treatment; 0.6, 3 or 18 mcg/kg daily for two weeks (FIG. 17)
Procedure: Sprague Dawley rats were fed either a normal diet or a vitamin D deficient diet for a period of four weeks. Animals were then injected daily for two weeks with either 25-hydroxyvitamin D3 at 0.6, 3, or 18 mcg/kg or vehicle as per the axis label in FIG. 17. Kidneys were collected 24 hours after the last injection and CYP24 mRNA levels were measured by real-time PCR.

[6] = 1,25-dihydroxyvitamin D3 levels in vitamin D deficient uremic versus vitamin D deficient rats dosed with 25-hydroxyvitamin D; format: in vivo; settings: after dosing for two weeks; vitamin D deficient uremic rats compared to vitamin D deficient animals (FIG. 19)
CYP24 [7] = experiment: Kidney CYP24 mRNA (real-time PCR) in uremic (adenine) vitamin D deficient rats treated with 25-hydroxyvitamin D3; format: in vivo, Sprague Dawley rats; settings: uremic vitamin D deficient rats after treatment; 0.6 or 18 mcg/kg daily for two weeks (FIG. 18)
Procedure: Sprague Dawley rats were fed either a normal diet (Adenine Vehicle group) or a vitamin D deficient diet (Vit. D def./Adenine Vehicle group) for a period of four weeks. Following this treatment, animals were orally administered, daily for two weeks, 100 mg of adenine. Animals were then injected daily for another two weeks with either 25-hydroxyvitamin D3 at 0.6 or 18 mcg/kg or vehicle as per the axis label in FIG. 18. Kidneys were collected 24 hours after the last injection and CYP24 mRNA levels were measured by real-time PCR.

HEK cells = experiment: [3H]-thymidine incorporation in HEK cells, 1,25-dihydroxyvitamin D3 with CYP24 inhibitor; format: cell-based; settings: cultured HEK cells, inhibitor at 0, 1, 10 and 50 nM (FIG. 15)
Procedure: HEK cells were transferred into 96-well plates at 2000 cells/well density. After 2 days of growth in 96-well plates the cells were treated with 1,25-dihydroxyvitamin D3 at the final concentrations 10^−6-10^−11 M in combination with the MK-24(S)—S(O)(NH)-Ph-1 compound with the varied final concentration of 0, 1, 10 and 50 nM. After overnight treatment [^3H]-thymidine was added to cells, […]/well in KGM media for 16 h. The radioactivity incorporation was counted using a scintillation counter after the addition of […] of scintillation fluid. The data were represented as an incorporation of thymidine in cpm depending on 1,25-dihydroxyvitamin D3 concentration. Each data point represents at least 4 independent trials.

CYP24 [8] = experiment: CYP24 induction (real-time PCR) in HEK cells with 1,25-dihydroxyvitamin D3 alone or with CYP24 inhibitor; format: cell-based; settings: 10 nM inhibitor with 10 nM 1,25-dihydroxyvitamin D3, 6, 24, 48 and 72 hours (FIG. 14)
Procedure: HEK cells were seeded at 25,000 cells per well (24-well plate) and incubated with 1,25-dihydroxyvitamin D3 (10 nM) alone or with a CYP24 inhibitor (MK-24(S)—S(O)(NH)-Ph-1, see U.S. Pat. No. 7,101,865, compound I(a)) (10 nM) for 6, 24, 48 and 72 hours. Cells were collected and RNA was prepared using TRIZOL® reagent. CYP24 was quantified using real-time PCR.

CYP24 [9] = experiment: CYP24 RNA expression in HPK1a-ras cells, 1,25-dihydroxyvitamin D3 with or without FGF23; format: cell-based; settings: 100 ng/mL FGF23 with 0, 1, 10, 100 nM calcitriol, after 8 hours (FIG. 16)
Procedure: HPK1a-ras cells were treated with 0, 1, 10, and 100 nM of 1,25-dihydroxyvitamin D3 (calcitriol), with or without 100 ng/mL of FGF23, and CYP24 RNA expression was measured after 8 hours.

For `C=C1/C(=C\C=C2/CCC[C@]3(C)[C@@H]([C@H](C)CCCC(C)(C)O)CC[C@@H]23)C[C@@H](O)C[C@@H]1O` [1,25-(OH)2-D3, 1,25-dihydroxyvitamin D3], the PTH (PTH) was “reduction”, the “1,25-(OH)2-D3 levels (vitamin D hormone status)” value (shortened to “1,25-(OH)2-D3 levels”) [1] was “restored to the level of control-fed animals” and the “induced expression of CYP24” value (CYP24 [2]; parathyroid gland, uremic compared to normal animals, 0.5 mcg/kg i.v. daily for 7 days (FIG. 11)) was “significantly induced; also recorded: markedly greater”. For the same molecule, the CYP24 gene expression (CYP24 [2]; tissues from both normal and uremic rats, 0.5 mcg/kg i.v. daily) was “strongly induced”, the CYP24 expression (CYP24 [2]; uremic rats, 0.5 mcg/kg i.v. daily for 7 days (FIG. 12)) was “drastically induces” and the “serum 25-(OH)D3 levels” value [3] was “reduction”. The iPTH level [4] was “restored to a level similar to control-fed animals”.

In the case of `C=C1CC[C@H](O)C/C1=C/C=C1\CCC[C@]2(C)[C@@H]([C@H](C)CCCC(C)(C)O)CC[C@@H]12` [25-OH-D3, 25-hydroxyvitamin D3], the “1,25-(OH)2-D3 levels” value [1] is reported as “did not significantly affect”, the CYP24 levels (CYP24 [5]) is reported as “increase to normal or higher levels” and the “levels of 1,25-dihydroxyvitamin D3” value [6] is reported as “lower”. The iPTH level [4] was “restored to a level similar to control-fed animals” and the CYP24 levels (CYP24 [7]) was “do not increase”.

For `C=C1/C(=C\C=C2/CCC[C@]3(C)[C@@H]([C@H](C)CCC[S@](=N)(=O)c4ccccc4)CC[C@@H]23)C[C@@H](O)C[C@@H]1O` [MK-24(S)—S(O)(NH)-Ph-1, (5Z,7E)-(1S,3R)-24-(S)-phenylsulfoximine-25-nor-9,10-seco-5,7,10(19)-cholestatriene-1,3-diol], the “enhancement of the anti-proliferative effects of 1,25-dihydroxyvitamin D3” value (HEK cells) was “approximately 3 orders of magnitude” and the “CYP24 induction by 1,25-dihydroxyvitamin D3 in the presence of CYP24 inhibitor” value (CYP24 [8]) was “markedly extended”.

With `C=C1/C(=C\C=C2/CCC[C@]3(C)[C@@H]([C@H](C)/C=C/[C@H](C)C(C)(C)O)CC[C@@H]23)C[C@@H](O)C[C@@H]1O` [1,25-(OH)2-D2, 1,25-dihydroxyvitamin D2] the “1,25-(OH)2-D3 levels” value [1] was “did not significantly affect” and the iPTH level [4] was “restored to a level similar to control-fed animals”.

B1: FGF23: fibroblast growth factor-23 (protein, UniProt Q9GZV9 25-251, looked up)
Fibroblast growth factor 23: YPNASPLLGSSWGGLIHLYTATARNSYHLQIHKNGHVDGAPHQTIYSALMIRSEDAGFVVITGVMSRRYLCMDFRGNIFGSHYFDPENCRFQHQTLENGYDVYHSPQYHFLVSLGRAKRAFLPGMNPPPYSQFLSRRNEIPLIHFNTPIPRRHTRSAEDDSERDPLNVLKPRARMTPAPASCSQELPSAEDNSPMASDPLGVVRGGRVNTHAGGTGPEGCRPFAKFI
With B1 the “CYP24 RNA production, effect with 1,25-dihydroxyvitamin D3” value (CYP24 [9]) was “synergizes”.
